These results are taken from patent publication EP2526945A1, “New CRTH2 Antagonists” (Almirall, S.A., priority 2011, dated 2012).

Molecules are shown by their SMILES.

The target in the test is T1, CRTh2 receptor (Homo sapiens, UniProt Q9Y5Y4).
T1 construct: expressed in transfected cells; host or cells: CHO.K1 cells (membranes)
T1 sequence (Q9Y5Y4 1-395): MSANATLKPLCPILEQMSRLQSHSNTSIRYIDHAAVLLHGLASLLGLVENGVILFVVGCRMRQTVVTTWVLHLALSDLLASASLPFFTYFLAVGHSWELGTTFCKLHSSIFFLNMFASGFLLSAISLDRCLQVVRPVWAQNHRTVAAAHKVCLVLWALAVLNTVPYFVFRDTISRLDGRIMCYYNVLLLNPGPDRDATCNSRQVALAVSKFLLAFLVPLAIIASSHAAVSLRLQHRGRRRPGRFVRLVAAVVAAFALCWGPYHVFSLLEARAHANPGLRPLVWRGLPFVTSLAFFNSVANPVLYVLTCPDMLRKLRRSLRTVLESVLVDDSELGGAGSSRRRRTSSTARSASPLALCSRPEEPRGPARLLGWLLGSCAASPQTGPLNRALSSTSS
Kind of test: CRTh2 GTPγS antagonism binding assay. It is filed as biochemical. As to conditions: membranes from CHO.K1 cells stably overexpressing the CRTh2 receptor; PGD2 at 50 nM (EC80); [35S]-GTPγS as radioligand; read-out: GTPγ Binding. Here is the method: CRTh2 GTPγS antagonism binding assay
The assay is performed using membranes obtained from CHO.K1 cells stably overexpressing the CRTh2 receptor and [^35S]-GTPγS as radioligand. Assay is performed pre-incubating 4-8 µg of membranes per well with the compound to be tested for 1 h, followed by incubation with PGD2 at 50 nM (EC80), 0.1 nM [^35S]-GTPγS in incubation buffer (20 mM HEPES, 10 mM MgCl2, 100 mM NaCl, 10 µM GDP, 10 µg/ml Saponine and 0.2% BSA) for 2 h at room temperature. The reaction is terminated by filtering in GF/C plates pre-treated with 20 mM HEPES, 10 mM MgCl2, 100 mM NaCl and washing 6 times with wash buffer (20 mM NaH2PO4, 20 mM Na2HPO4). After washing, plates are dried and scintillation buffer Optiphase added. The radioactivity retained in the filter is counted using a Microbeta liquid scintillation counter.

Regarding `Cc1c(Cc2ccccc2S(=O)(=O)c2ccccc2)c2c(n1CC(=O)O)CCN(C(C)C(F)(F)F)C2=O` (stereo not drawn) [Example 71, [2-Methyl-4-oxo-3-[2-(phenylsulfonyl)benzyl]-5-(2,2,2-trifluoro-1-methylethyl)-4,5,6,7-tetrahydro-1H-pyrrolo[3,2-c]pyridin-1-yl]acetic acid], the IC50 is 5.8 nM.

`Cc1c(Cc2ccccc2S(=O)(=O)c2ccccc2)c2c(=O)[nH]ccc2n1CC(=O)O` [Example 72, {2-Methyl-4-oxo-3-[2-(phenylsulfonyl)benzyl]-4,5-dihydro-1H-pyrrolo[3,2-c]pyridin-1-yl}acetic acid]: the IC50 worked out at 8.6 nM.

`Cc1c(Cc2ccccc2S(=O)(=O)c2ccccc2)c2c(=O)n(C)ccc2n1CC(=O)O` [Example 75, {2,5-Dimethyl-4-oxo-3-[2-(phenylsulfonyl)benzyl]-4,5-dihydro-1H-pyrrolo[3,2-c]pyridin-1-yl}acetic acid]: the IC50 came to 4.9 nM.
